Assay results taken from patent publication US4929601A, “Tripeptides useful as immunostimulants as well as in the prevention of metastases” (Ellem Industria Farmaceutica, S.p.A., priority 1987, dated 1990).

Assays:
[1] = test system: PHA-stimulated human T lymphocytes; assay: DNA synthesis in PHA-stimulated human T lymphocytes in vitro (3H-thymidine); type: cell-based; conditions: for DNA synthesis, 3H-thymidine c.p.m. (mean): control 22642
Experimental: Human T lymphocytes, incubated in vitro for 72 hours in presence of 0.5% PHA and different concentrations of the tripeptides under examination, have been analyzed for DNA synthesis (cell proliferation) by means of 3H-thymidine labelling.

[2] = test system: PHA-stimulated human T lymphocytes; assay: RNA synthesis in PHA-stimulated human T lymphocytes in vitro (3H-uridine); type: cell-based; conditions: for RNA synthesis, 3H-uridine c.p.m. (mean): control 3835
Experimental: Human T lymphocytes, incubated in vitro for 24 hours in presence of 0.5% phytohemagglutinin (PHA) and different concentrations of the tripeptides under examination, have been analyzed for RNA synthesis (cell activation) by means of 3H-uridine labelling.

Question: N=C(N)NCCC[C@H](N)C(=O)NCC(=O)N[C@H](CC(=O)O)C(=O)O [ARG--GLY--D--ASP, L-Arginyl-glycyl-D-Aspartic acid] was tested. Which “PHA-induced human T lymphocyte proliferation (DNA synthesis)” value ([1]; 72 hours, 0.5% PHA) did it give?
Answer: Its value is “able to increase”.

Question: What about the “DNA synthesis Δ %” value ([1]; peptide 0.0001 mcg/ml) of the same compound?
Answer: The value was -3%.

Question: What about the “DNA synthesis, 3H-thymidine c.p.m. (mean)” value ([1]; peptide 0.0001 mcg/ml, 72 hours, 0.5% PHA) of the same compound?
Answer: The value was 21898 c.p.m.

Question: And the “DNA synthesis Δ %” value ([1]; peptide 0.001 mcg/ml)?
Answer: The value was “+2%”.

Question: And the “DNA synthesis, 3H-thymidine c.p.m. (mean)” value ([1]; peptide 0.001 mcg/ml, 72 hours, 0.5% PHA)?
Answer: The value was 23029 c.p.m.

Question: What about the “DNA synthesis Δ %” value ([1]; peptide 0.01 mcg/ml) of the same compound?
Answer: The value was “+8%”.

Question: And the “DNA synthesis, 3H-thymidine c.p.m. (mean)” value ([1]; peptide 0.01 mcg/ml, 72 hours, 0.5% PHA)?
Answer: Its value is 24551 c.p.m.

Question: And the “DNA synthesis Δ %” value ([1]; peptide 0.1 mcg/ml)?
Answer: The value was “+15%”.

Question: What about the “DNA synthesis, 3H-thymidine c.p.m. (mean)” value ([1]; peptide 0.1 mcg/ml, 72 hours, 0.5% PHA) of the same compound?
Answer: The value was 26090 c.p.m.

Question: And the “DNA synthesis Δ %” value ([1]; peptide 1 mcg/ml)?
Answer: Its value is “+16%”.

Question: What about the “DNA synthesis, 3H-thymidine c.p.m. (mean)” value ([1]; peptide 1 mcg/ml, 72 hours, 0.5% PHA) of the same compound?
Answer: The value was 26170 c.p.m.

Question: And the “DNA synthesis Δ %” value ([1]; peptide 10 mcg/ml)?
Answer: Its value is “+9%”.

Question: What about the “DNA synthesis, 3H-thymidine c.p.m. (mean)” value ([1]; peptide 10 mcg/ml, 72 hours, 0.5% PHA) of the same compound?
Answer: The value was 24570 c.p.m.

Question: What about the “PHA-induced human T lymphocyte activation (RNA synthesis)” value ([2]; 24 hours, 0.5% PHA) of the same compound?
Answer: The value was “able to increase”.

Question: What about the “RNA synthesis Δ %” value ([2]; peptide 0.0001 mcg/ml) of the same compound?
Answer: The value was -8%.

Question: What about the “RNA synthesis, 3H-uridine c.p.m. (mean)” value ([2]; peptide 0.0001 mcg/ml, 24 hours, 0.5% PHA) of the same compound?
Answer: The value was 3517 c.p.m.

Question: And the “RNA synthesis Δ %” value ([2]; peptide 0.001 mcg/ml)?
Answer: Its value is “+8%”.

Question: What about the “RNA synthesis, 3H-uridine c.p.m. (mean)” value ([2]; peptide 0.001 mcg/ml, 24 hours, 0.5% PHA) of the same compound?
Answer: Its value is 4129 c.p.m.

Question: What about the “RNA synthesis Δ %” value ([2]; peptide 0.01 mcg/ml) of the same compound?
Answer: Its value is “+12%”.

Question: And the “RNA synthesis, 3H-uridine c.p.m. (mean)” value ([2]; peptide 0.01 mcg/ml, 24 hours, 0.5% PHA)?
Answer: The value was 4283 c.p.m.

Question: What about the “RNA synthesis Δ %” value ([2]; peptide 0.1 mcg/ml) of the same compound?
Answer: The value was “+25%”.

Question: And the “RNA synthesis, 3H-uridine c.p.m. (mean)” value ([2]; peptide 0.1 mcg/ml, 24 hours, 0.5% PHA)?
Answer: Its value is 4777 c.p.m.

Question: What about the “RNA synthesis Δ %” value ([2]; peptide 1 mcg/ml) of the same compound?
Answer: Its value is “+22%”.

Question: What about the “RNA synthesis, 3H-uridine c.p.m. (mean)” value ([2]; peptide 1 mcg/ml, 24 hours, 0.5% PHA) of the same compound?
Answer: Its value is 4682 c.p.m.

Question: And the “RNA synthesis Δ %” value ([2]; peptide 10 mcg/ml)?
Answer: Its value is “+13%”.

Question: What about the “RNA synthesis, 3H-uridine c.p.m. (mean)” value ([2]; peptide 10 mcg/ml, 24 hours, 0.5% PHA) of the same compound?
Answer: Its value is 4346 c.p.m.
